Test results published in US20100216749A1, “Combination Therapy for Neuroprotection” (S.H. PHARMA., LTD, priority 2007, published 2010).
Several values for one entry are separate records, joined by “and”; a condition that tells them apart may be missing. Equal values may be shown once.

Legend:
[1] = system: middle cerebral artery occlusion (MCAO) stroke animal model; assay: Cerebral infarction volume by TTC staining of brain sections after 1 h MCAO/reperfusion; format: in vivo, rat; conditions: for concentration at which the size of cerebral infarction was inhibited most effectively: i.v. 1, 2, 5, 10 and 20 mg/kg; for cerebral infarction inhibited by: 4 hours after reperfusion (FIG. 11)
[2] = system: middle cerebral artery occlusion (MCAO) stroke animal model; assay: Evaluation of neurologic deficit (static reflex test and forelimb placing test) after MCAO/reperfusion; format: in vivo, rat; conditions: for neuronal damage / motor skill deficit improved: administered 6 hours after MCAO/reperfusion, Example 1 (FIG. 10)
Method: Forelimb placing was evaluated by the method described (0: immediate and complete placing, 1: incomplete and/or delayed placing, 2: no placing) (De Ryck M. et al., Stroke 20; 1388-1390). Points of static reflex and forelimb placing of each animal were summed.

stroke animal model = conditions: cited from earlier work
[3] = system: middle cerebral artery occlusion (MCAO) stroke animal model; assay: Rota-rod test (motor skill) after MCAO/reperfusion; conditions: i.v. 5 mg/kg; for motor skill recovered to, by normal motor skill: 6 hours after MCAO/reperfusion (FIG. 9)
Method: Motor skill of a rat damaged by MCAO was investigated by measuring retention time on Rota-rod (Rota-rod test).
Retention time of each rat on Rota-rod at 5 rpm was measured for 24 hours after MCAO for 1 hour. Next, each rat was also forced to stay on Rota-rod operating at the speeds of 10 rpm and 15 rpm and retention time of each rat was measured at one hour interval. […] The points herein were obtained from repeated experiments, which were performed at 1 hour interval at the speeds of 10 rpm and 15 rpm.

[4] = i.v. 5 mg/kg each drug, 6 hours after reperfusion (Examples 3-8)
[5] = administered 6 hours after neuronal damage (Examples 4-7)
[6] = 6 hours after reperfusion (FIG. 23)
[7] = administered 4 hours after neuronal damage, Example 2 (FIG. 13)
[8] = i.v. 2.5 mg/kg each drug, 6 hours after reperfusion (Examples 9-12)
[9] = i.v. 2.5 mg/kg each drug, 6 hours after reperfusion (Examples 9-12), 2.5 mg/kg

## chloro-5-(2-(2,4-dichlorophenoxy)ethylamino)-2-hydroxybenzoic acid
[1]; [4]
  volume of cerebral infarction reduced by: 61%
[2]; [5]
  neuronal damage improved / neurologic deficit recovered: very weak

## chloro-2-hydroxy-5-(4-(trifluoromethyl)phenylethylamino)benzoate
[1]; [4]
  volume of cerebral infarction reduced by: 58%

## CNCCC(Oc1ccc(C(F)(F)F)cc1)c1ccccc1 (centres unmarked) [fluoxetine chloride, N-methyl-[4-(trifluoromethyl)phenoxy]benzenepropaneamine]
[1]; [4]
  volume of cerebral infarction reduced by: 59%
[1]; [6]
  concentration at which the size of cerebral infarction was inhibited most effectively: 5 mg/kg

## ethyl pyruvate (pyruvoyloxyethane) [EP]
[1]; 5 mg/kg, 6 hours after reperfusion (FIG. 1)
  infarcted regions (TTC staining) compared with the control group: significantly decreased
[1]; i.v. 1 mg/kg, 6 hours after reperfusion, 1 h MCAO (FIG. 2)
  volume of ischemia region: not changed
[1]; i.v. 5 mg/kg each drug
  cerebral infarction inhibited by: 48%
[1]; [4]
  volume of cerebral infarction reduced by: 66%
[1]; i.v. 5 mg/kg, 30 minutes after reperfusion (FIG. 3)
  infarction volume reduced to: 17.5%
[1]; i.v. 5 mg/kg, 30 minutes before reperfusion (FIG. 3)
  infarction volume reduced to: 9.0%
[1]; i.v. 5 mg/kg, 6 hours after reperfusion (FIG. 3)
  infarction volume reduced to: 34.0%
[1]; i.v. 5 mg/kg, 6 hours after reperfusion, 1 h MCAO (FIG. 2)
  volume of ischemia region reduced to, by the control animal: 33.6%
[1]; i.v. 5 mg/kg, 9 hours after reperfusion (FIG. 3)
  infarction volume reduced to: 58.7%
[1]; i.v. 5 mg/kg, 12 hours after reperfusion (FIG. 3)
  infarction volume reduced to: 58.0%
[1]; i.v. 10 mg/kg each versus 5 mg/kg, 6 hours after reperfusion (FIG. 23)
  infarction inhibiting effect when concentration increased: the effect was not increased
[1]; i.v. 10 mg/kg, 6 hours after reperfusion, 1 h MCAO (FIG. 2)
  volume of ischemia region reduced to, by the control animal: 41.7%
[1]; i.v. 20 mg/kg, 6 hours after reperfusion, 1 h MCAO (FIG. 2)
  volume of ischemia region reduced to, by the control animal: 61.6%
[1]; [6]
  concentration at which the size of cerebral infarction was inhibited most effectively: 5 mg/kg
Stroke animal model; administered 24 hours after ischemia-reperfusion
  size of infarction reduced: approximately 20%
Stroke animal model; administered into the abdominal cavity 12 hours after ischemia-reperfusion
  size of infarction reduced to: less than 50%
[3]; 6 hours after MCAO/reperfusion (FIG. 4)
  period spent on Rota-rod: significantly longer period on Rota-rod
[3]
  motor skill recovered to, by normal motor skill: 70%
[2]; [7]
  neuronal damage improved / neurologic deficit recovered: 40%
[2]
  neuronal damage / motor skill deficit improved: 60%
[2]; [5]
  neuronal damage improved / neurologic deficit recovered: 40%
[2]; two days after MCAO/reperfusion (FIG. 5)
  neurologic deficit after MCAO/reperfusion: suppress neurologic deficit

## O=C(O)c1ccc(C(F)(F)F)cc1O [2-hydroxy-4-trifluoromethylbenzoic acid]
[1]; [8]
  volume of cerebral infarction reduced by: 30%

## chloro-2-hydroxy-5-(2-(2,4,5-trichlorophenoxy)ethylamino)benzoic acid
[1]; [4]
  volume of cerebral infarction reduced by: 64%
[2]; [5]
  neuronal damage improved / neurologic deficit recovered: very weak

## CC(=O)Oc1ccccc1C(=O)O [acetylsalicylic acid]
[3]
  motor skill recovered to, by normal motor skill: 30%
[2]
  neuronal damage / motor skill deficit improved: very weak

## pyruvoylamininediethane
[1]; [9]
  volume of cerebral infarction reduced by: 40% and 31%

## chloro-5-(2-(4-chlorophenoxy)ethylamino)-2-hydroxybenzoic acid
[1]; [4]
  volume of cerebral infarction reduced by: 55%
[2]; [5]
  neuronal damage improved / neurologic deficit recovered: very weak

## CC(=O)Oc1cc(C(F)(F)F)ccc1C(=O)O [2-acetoxy-4-(trifluoromethyl)benzoic acid]
[1]; [8]
  volume of cerebral infarction reduced by: 23%

## chloro-2-hydroxy-5-(2-(4-methoxyphenoxy)ethylamino)benzoic acid
[1]; [4]
  volume of cerebral infarction reduced by: 53%
[2]; [5]
  neuronal damage improved / neurologic deficit recovered: very weak

## CCNC(=O)C(C)=O [pyruvoylaminoethane]
[1]; [9]
  volume of cerebral infarction reduced by: 20% and 25%

## chloro-2-hydroxy-5-(2,3,5,6-tetrafluoro-4-(trifluoromethyl)benzylamino)benzoate
[1]; i.v. 5 mg/kg each drug
  cerebral infarction inhibited by: 30%
[2]; [7]
  neuronal damage improved / neurologic deficit recovered: very weak
